# Source: article PMC12881670, “Investigation into ligand selectivity and bias at the formyl peptide receptor family” (The Journal of Pharmacology and Experimental Therapeutics, 2025)
# Where a SMILES comes first, the peptide text is derived from it. The star is where a group is joined. For = O=C*
# Experiments:
# [1] = test system: formyl peptide receptor family (Hs_FPR1, Hs_FPR2, Mm_Fpr1, Mm_Fpr2); test: Summary of main findings: receptor subtype selectivity and ligand bias across all readouts; design: species or system human and mouse
# Source text: To determine ligand bias, a reference ligand is required, that is, “balanced” for the pathways tested.[37] […] We then used measurements of the activity ratio (Log (Emax/EC50)) for each receptor, ligand, and pathway in an attempt to observe any ligand bias (Fig. 6).
# Hs_FPR1 = target: T1, Hs_FPR1 (Homo sapiens, UniProt P21462); test: Internalization of FLAG-tagged receptors by flow cytometry; type: cell-based; design: Emax: dose or concentration left out as unconfirmed; settings: Hs_FPR1, 30 min, relative to 1 μM WKYMVm
# T1 construct: expressed in transfected cells
# T1 sequence (P21462 1-350): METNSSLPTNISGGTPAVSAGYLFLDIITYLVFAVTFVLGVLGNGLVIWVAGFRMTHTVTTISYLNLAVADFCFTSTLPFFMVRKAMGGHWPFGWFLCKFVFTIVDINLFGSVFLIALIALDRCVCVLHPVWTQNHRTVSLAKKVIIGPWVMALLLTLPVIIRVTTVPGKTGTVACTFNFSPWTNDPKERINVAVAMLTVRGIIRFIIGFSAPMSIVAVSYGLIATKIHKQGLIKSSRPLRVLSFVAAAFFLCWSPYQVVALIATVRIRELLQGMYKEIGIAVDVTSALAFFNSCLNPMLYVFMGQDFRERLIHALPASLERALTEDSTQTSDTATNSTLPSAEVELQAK
# Method: (§1) Internalization of FPRs was measured by flow cytometry.[30] Briefly, cells were incubated with Alexa Fluor 657 conjugated M1 antiflag antibody (Sigma-Aldrich Cat# F3040, RRID:AB_439712) for 30 minutes at 37 °C to label surface receptors. Cells were then incubated with the indicated concentration of ligand before washing in PBS/0.04% EDTA to remove any remaining surface antibody. Remaining fluorescence was then measured using flow cytometry on either a BD FACScalibur or Attune, recording 5000 gated events. […] As a control, some samples were left untreated, and “strip only” was measured as a readout of constitutive endocytosis, and this value was subtracted from the data.
# (§2) All data were analyzed using GraphPad Prism using the nonlinear regression log(agonist) versus response (3 parameters) function for all assays, except binding, which was analyzed using the One site-FitlogIC50 function. Bias calculations were carried out following IUPHAR guidelines as described,[27]^,[37] and data were presented as the Δ Activity ratio (Log[EmaxB/EC50B])-(Log[EmaxA/EC50A]).
# Hs_FPR2 [2] = target: T2, Hs_FPR2 (Homo sapiens, UniProt P25090); test: as above; type: cell-based; design: Emax: dose or concentration left out as unconfirmed
# T2 construct: expressed in transfected cells
# T2 sequence (P25090 1-351): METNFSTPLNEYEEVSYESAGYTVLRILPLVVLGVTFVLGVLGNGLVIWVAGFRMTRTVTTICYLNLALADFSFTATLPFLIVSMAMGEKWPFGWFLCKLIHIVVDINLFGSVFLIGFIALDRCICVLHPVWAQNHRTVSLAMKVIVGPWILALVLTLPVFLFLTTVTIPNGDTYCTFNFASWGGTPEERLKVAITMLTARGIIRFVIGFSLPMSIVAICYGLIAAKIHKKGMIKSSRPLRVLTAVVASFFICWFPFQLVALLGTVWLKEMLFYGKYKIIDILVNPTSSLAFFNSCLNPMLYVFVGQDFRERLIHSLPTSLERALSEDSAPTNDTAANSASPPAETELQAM
# Method: as §1, §2
# Mm_Fpr2 [3] = target: T3, Mm_Fpr2 (Mus musculus, UniProt O88536); test: BRET receptor-RLuc8 interaction with Venus-mGsi; type: cell-based
# T3 construct: expressed in transfected cells
# T3 sequence (O88536 1-351): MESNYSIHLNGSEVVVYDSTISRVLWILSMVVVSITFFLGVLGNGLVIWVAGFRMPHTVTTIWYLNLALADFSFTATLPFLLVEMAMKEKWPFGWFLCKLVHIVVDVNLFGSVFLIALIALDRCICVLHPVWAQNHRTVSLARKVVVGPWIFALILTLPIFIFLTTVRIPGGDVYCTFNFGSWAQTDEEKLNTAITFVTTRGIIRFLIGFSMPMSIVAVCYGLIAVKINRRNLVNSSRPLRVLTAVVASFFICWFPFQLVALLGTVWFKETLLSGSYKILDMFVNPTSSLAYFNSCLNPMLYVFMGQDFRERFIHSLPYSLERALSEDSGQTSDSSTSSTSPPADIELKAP
# Method: (§3) BRET1 assays to measure FPR interaction with Venus-mGsi and Arrestin 3-yellow fluorescent protein (YFP) were performed as previously described.[31]^,[32] Briefly, all FPRs C-terminally fused to Renilla Luciferase (donor, RLuc8) were transiently transfected along with either Venus-mGsi or YFP-Arrestin 3 (acceptor) at a ratio of 1:4. 24 hours post transfection, cells were replated into white-walled, 96-well plates and cultured for a further 24–48 hours. On the day of experimentation, growth media was aspirated and replaced with 80 μl Hanks Buffered Saline Solution and equilibrated for 30 minutes. Coelenterazine h was added to each well to a final concentration of 5 μM for 5 minutes before the addition of each compound, and the plate was incubated for a further 10 minutes at 37 °C before being read on a ClarioStar Plus, with luminescence measured at 480/20 nm (donor) and 530/20 (acceptor). The BRET ratio (acceptor/donor) was determined, and the background (untreated) subtracted to give the N-BRET value.
# as §2
# Mm_Fpr1 [4] = target: T4, Mm_Fpr1 (Mus musculus, UniProt P33766); test: BRET receptor-RLuc8 interaction with Venus-mGsi; type: cell-based
# T4 construct: expressed in transfected cells
# T4 sequence (P33766 1-364): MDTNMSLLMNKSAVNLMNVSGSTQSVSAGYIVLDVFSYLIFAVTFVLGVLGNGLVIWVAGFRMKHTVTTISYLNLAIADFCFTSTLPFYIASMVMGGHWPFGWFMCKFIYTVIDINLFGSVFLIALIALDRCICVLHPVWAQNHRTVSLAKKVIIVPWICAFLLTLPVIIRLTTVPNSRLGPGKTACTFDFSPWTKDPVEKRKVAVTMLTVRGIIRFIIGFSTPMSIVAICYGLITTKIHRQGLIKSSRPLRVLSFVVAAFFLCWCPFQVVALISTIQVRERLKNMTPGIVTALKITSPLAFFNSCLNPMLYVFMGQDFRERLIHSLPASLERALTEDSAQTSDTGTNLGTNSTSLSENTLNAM
# Method: as §3, §2
# Hs_FPR2 [5] = target: T2, Hs_FPR2; test: BRET receptor-RLuc8 interaction with Venus-mGsi; type: cell-based
# Method: as §3, §2
# Mm_Fpr2 [6] = target: T3, Mm_Fpr2; test: BRET receptor-RLuc8 interaction with Arrestin 3-YFP; type: cell-based
# Method: as §3, §2
# Hs_FPR2 [7] = target: T2, Hs_FPR2; test: as above; type: cell-based
# Method: as §3, §2
# Mm_Fpr2 [8] = target: T3, Mm_Fpr2; test: Internalization of FLAG-tagged receptors by flow cytometry; type: cell-based; design: Emax: dose or concentration left out as unconfirmed
# Method: (§4) Internalization of FPRs was measured by flow cytometry.[30] Briefly, cells were incubated with Alexa Fluor 657 conjugated M1 antiflag antibody (Sigma-Aldrich Cat# F3040, RRID:AB_439712) for 30 minutes at 37 °C to label surface receptors. Cells were then incubated with the indicated concentration of ligand before washing in PBS/0.04% EDTA to remove any remaining surface antibody. Remaining fluorescence was then measured using flow cytometry on either a BD FACScalibur or Attune, recording 5000 gated events. […] As a control, some samples were left untreated, and “strip only” was measured as a readout of constitutive endocytosis, and this value was subtracted from the data. Vehicle control (0.1% DMSO) had no effect on internalization of receptors.
# as §2
# Mm_Fpr1 [9] = target: T4, Mm_Fpr1; test: as above; type: cell-based; design: Emax: dose or concentration left out as unconfirmed
# Method: as §4, §2
# Mm_Fpr2 [10] = target: T3, Mm_Fpr2; test: ERK1/2 phosphorylation by Western blotting; type: cell-based
# Method: (§5) ERK phosphorylation was detected by Western blotting as previously described.[30] Briefly, HEK293 cells stably expressing FLAG-tagged FPRs were plated into 12-well culture plates until 90% confluent. On the day of the experiment, culture media was replaced with serum-free Dulbecco’s modified Eagle’s medium and incubated for 2 hours before stimulation with the indicated compounds. After 7 minutes, the media was removed and stimulation terminated by the addition of 100 μl sample buffer (0.5% SDS, Tris (pH 6.8), glycerol, at >90 °C).
# as §2
# Hs_FPR2 [11] = target: T2, Hs_FPR2; test: ERK1/2 phosphorylation by Western blotting; type: cell-based
# Method: as §5, §2
compound,measurement,setting,value
"CC[C@H](C)[C@H](NC(=O)[C@H](CC(C)C)NC(=O)[C@H](CCCCN)NC(=O)[C@H](CCSC)NC(=O)[C@H](CC(C)C)NC(=O)[C@@H]1CCCN1C(=O)[C@H](CC(N)=O)NC(=O)[C@@H](NC(=O)[C@H](CCCCN)NC(=O)[C@H](CCCNC(=N)N)NC(=O)[C@H](CCSC)NC(=O)[C@@H]1CCCN1C(=O)[C@@H](NC(=O)[C@H](CCSC)NC=O)[C@@H](C)O)[C@@H](C)CC)C(=O)N[C@@H](CC(N)=O)C(=O)O [MCT-2, Formyl-MTPMRKINPLMKLIN] (For-MTPMRKINPLMKLIN-OH)",Bias,"[1]; summary grade of ligand bias relative to WKYMVm, key not given",No
same,Notes,"[1]; summary of main findings, in words",Partial agonist
same,agonist-induced internalization (words),Hs_FPR1,failed to show appreciable internalization
same,Emax,Hs_FPR2 [2],63.3%
same,Emax,Mm_Fpr2 [3],25%
same,Emax,Mm_Fpr1 [4],-8.19%
same,Emax,Hs_FPR2 [5],44.4%
same,Emax,Mm_Fpr2 [6],12.1%
same,Emax,Hs_FPR2 [7],51.8%
same,Emax,Mm_Fpr2 [8],43.9%
same,Emax,Mm_Fpr1 [9],7.39%
same,agonist-induced internalization (words),"Mm_Fpr1 [9]; Mm_Fpr1, 30 min, relative to 1 μM WKYMVm",failed to show appreciable internalization
same,Emax,Mm_Fpr2 [10],169%
same,Emax,Hs_FPR2 [11],93.9%
